Measurements from patent US9624238B2, “4H-thieno[3,2-C]chromene-based inhibitors of Notum Pectinacetylesterase and methods of their use” (Lexicon Pharmaceuticals, Inc., priority 2011, dated 2017).

What was measured:
[1] = molecular target: T1, human notum pectinacetyltransferase (Homo sapiens, UniProt Q6P988); assay: Binding assay (OPTS esterase substrate, fluorimetric); type: biochemical
T1 construct: made in house; unpurified conditioned medium used
T1 sequence (Q6P988 20-496): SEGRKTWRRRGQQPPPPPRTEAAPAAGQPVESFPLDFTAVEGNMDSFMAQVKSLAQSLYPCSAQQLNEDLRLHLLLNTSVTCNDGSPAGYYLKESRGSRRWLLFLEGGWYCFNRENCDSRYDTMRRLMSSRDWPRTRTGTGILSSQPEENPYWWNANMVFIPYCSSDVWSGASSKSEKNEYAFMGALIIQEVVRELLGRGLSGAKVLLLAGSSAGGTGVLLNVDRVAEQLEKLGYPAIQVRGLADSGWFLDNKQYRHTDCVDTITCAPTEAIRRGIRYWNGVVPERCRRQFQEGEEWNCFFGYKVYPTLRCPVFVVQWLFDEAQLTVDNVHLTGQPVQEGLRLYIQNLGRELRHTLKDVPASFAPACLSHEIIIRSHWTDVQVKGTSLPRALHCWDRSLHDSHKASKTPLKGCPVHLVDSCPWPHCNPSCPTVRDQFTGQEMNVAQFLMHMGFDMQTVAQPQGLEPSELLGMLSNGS
Experimental: Plasmid containing human notum pectinacetyltransferase in pcDNA3.1(+) vector was transfected into HEK (293 cells and clones were selecting by growing in presence of 400 ug/mL of G418. Condition media from these cells was used for the assay.

[2] = molecular target: T1, human notum pectinacetyltransferase; assay: Reporter assay (CellSensor LEF/TCF-bla FreeStyle 293F cells, Wnt3a and notum conditioned media); type: cell-based
Experimental: Plasmid containing human notum pectinacetyltransferase in pcDNA3.1(+) vector was transfected into HEK (293 cells and clones were selecting by growing in presence of 400 ug/mL of G418. The clone containing highest expression of human notum pectinacetyltransferase in the conditioned media was maintained for all future activity assays. L cells overexpressing and secreting Wnt3a into the conditioned media were purchased from ATCC.
The assay protocol was as follows. […] The cell growth medium consisted of DMEM with 10% Dialyzed FBS, 5 μg/ml Blasticidin (Invitrogen, R210-01), 0.1 mM NEAA, 25 mM HEPES and 1×GPS. Cells were then trypsinized by first rinsing with PBS, followed by addition of 5 mL of trypsin and incubation of plates at room temperature for two minutes. A total of 10 mL of assay media (Opti-MEM, plus 0.5% dialyzed FBS, 0.1 mM NEAA, 1 mM sodium pyruvate, 10 mM HEPES, 1×GPS) was then added per 15 cm plate. Cells were counted and suspended at 0.75 million cells per mL. […] After incubation of cells at 37° C. for 3 hours, 10 μL of 30 mM LiCl in assay medium was added per well, followed by incubation at 37° C. for another 3 hours. […] Ten μL of the Wnt3a/notum pentinacetyltransferase mixture was then transferred from Greiner plates to each well of the 384-well plates containing the CellSensor cells.

[3] = given as numeric bound above the legend's highest class
[4] = given as numeric bound above the legend's classes

IC50 [1, 3] [nM]	IC50 ([1]; class symbols) [nM]	EC50 [2, 4] [nM]	EC50 ([2]; class symbols) [nM]	SMILES
> 2000	–	–	–	O=C(O)C1CCCN1C(=O)c1cc2c(s1)-c1ccccc1CC2 (stereo not shown)
> 2000	–	–	–	O=C(O)C1C(O)CCN1C(=O)c1cc2c(s1)-c1c(F)ccc(F)c1SC2 (stereo not shown)
> 2000	–	–	–	CC1(C)Oc2ccccc2-c2sc(C(=O)O)cc21
–	–	> 1000	–	O=C(O)c1cc2c(s1)-c1ccoc1CC2
–	< 50	–	< 50	COc1ccc2c(c1Cl)CCc1cc(C(N)=O)sc1-2
–	< 1000	–	< 50	COCCNC(=O)c1cc2c(s1)-c1ccc(OC)c(Cl)c1CC2
–	< 1000	–	< 50	COc1ccc2c(c1Cl)CCc1cc(C(=O)NCCN3CCOCC3)sc1-2
–	< 1000	–	< 50	COc1ccc2c(c1Cl)CCc1cc(C(=O)NCCO)sc1-2
–	< 1000	–	< 50	COc1ccc2c(c1C#N)CCc1cc(C(N)=O)sc1-2
–	< 100	–	< 50	O=C(NCc1ncco1)c1cc2c(s1)-c1cccc(F)c1CC2
–	< 50	–	< 50	NC(=O)c1cc2c(s1)-c1ccc(F)c(F)c1OC2
–	< 50	–	< 50	NC(=O)c1cc2c(s1)-c1cc(F)cc(F)c1CC2
–	< 50	–	–	NC(=O)c1cc2c(s1)-c1c(F)ccc(F)c1OC2
–	< 100	–	< 50	Cc1ccc(C)c2c1OCc1cc(C(N)=O)sc1-2
–	< 100	–	< 50	NC(=O)c1cc2c(s1)-c1ccc(Cl)cc1OC2
–	< 50	–	< 50	NC(=O)c1cc2c(s1)-c1ccc(F)cc1CC2
–	< 1000	–	< 50	O=C(O)c1cc2c(s1)-c1ccc(F)cc1CC2
–	< 1000	–	< 50	Cc1c(F)ccc2c1OCc1cc(C(=O)O)sc1-2
–	< 50	–	< 50	NC(=O)c1cc2c(s1)-c1cc(F)c(F)cc1CC2

Second part, the compound before the results:

SMILES	IC50 [1, 3] [nM]	IC50 ([1]; class symbols) [nM]	EC50 [2, 4] [nM]	EC50 ([2]; class symbols) [nM]
O=C(O)C1CCCN1C(=O)c1cc2c(s1)-c1cc(F)cc(F)c1SC2 (stereo not shown)	–	< 2000	–	–
O=C(O)C1CCCN1C(=O)c1cc2c(s1)-c1c(F)ccc(F)c1SC2 (stereo not shown)	–	< 1000	–	–
O=C(O)c1cc2c(s1)-c1scnc1CC2	–	–	> 1000	–
CC1(C)Cc2cc(C(=O)O)sc2-c2ccccc21	–	< 1000	–	–
Cc1ccc(Cl)c2c1-c1sc(C(N)=O)cc1CO2	–	< 50	–	< 50
Cc1ccc(Cl)c2c1-c1sc(C(=O)O)cc1CO2	–	< 1000	–	< 50
COc1ccc2c(c1Cl)CCc1cc(C(=O)NCCC#N)sc1-2	–	< 1000	–	< 50
N#Cc1cccc2c1OCc1cc(C(N)=O)sc1-2	–	< 1000	–	< 50
N#Cc1cccc2c1OCc1cc(C(=O)O)sc1-2	–	< 100	–	< 50
COc1ccc2c(c1F)CCc1cc(C(N)=O)sc1-2	–	< 100	–	< 50
O=C(NCCO)c1cc2c(s1)-c1cccc(F)c1CC2	–	< 1000	–	< 50
COCCNC(=O)c1cc2c(s1)-c1cccc(F)c1CC2	–	< 100	–	< 50
O=C(O)c1cc2c(s1)-c1ccc(F)c(F)c1OC2	–	< 1000	–	< 50
NC(=O)c1cc2c(s1)-c1ccc(F)c(F)c1CC2	–	< 50	–	< 50
Cc1ccc2c(c1C)CCc1cc(C(=O)O)sc1-2	–	< 1000	–	–
Cc1ccc2c(c1C)CCc1cc(C(N)=O)sc1-2	–	< 1000	–	–
CC1(C)Oc2c(F)cc(F)cc2-c2sc(C(=O)O)cc21	–	< 1000	–	–
O=C(O)c1cc2c(s1)-c1cc(F)cc(F)c1CC2	–	< 1000	–	< 50
O=C(O)c1cc2c(s1)-c1c(Cl)ccc(Cl)c1OC2	–	< 100	–	< 50
CC1(C)Cc2cc(C(N)=O)sc2-c2c(F)ccc(F)c21	–	< 50	–	–
Cc1ccc(C)c2c1OCc1cc(C(=O)O)sc1-2	–	< 2000	–	< 50
CN(C)c1ccc2c(c1)CCc1cc(C(N)=O)sc1-2	–	< 2000	–	–
O=C(O)c1cc2c(s1)-c1ccc(Cl)cc1OC2	–	< 100	–	< 50
O=C(O)c1cc2c(s1)-c1ccc(Cl)cc1CC2	–	< 1000	–	–
Cc1c(F)ccc2c1OCc1cc(C(N)=O)sc1-2	–	< 50	–	< 50
Cc1ccc2c(c1)CCc1cc(C(=O)O)sc1-2	–	< 1000	–	–
O=C(O)c1cc2c(s1)-c1cc(F)c(F)cc1CC2	–	< 50	–	< 50
